{
  "source": "patent US7659273B2",
  "about": "“Composition for accelerating bone fracture healing” (Mitsubishi Tanabe Pharma Corporation, priority 2001, dated 2010)",
  "test_system": "fibula fracture region of streptozotocin-induced diabetic rats",
  "assay": "Acceleration of fracture healing in diabetic rat (Experimental Example 7)",
  "assay_type": "in vivo",
  "conditions": "Example 7-(1) microspheres; for Bone mineral content: 6 weeks after sutura, DXA at fracture region; for Breaking Energy / Breaking force: 6 weeks, three-point bending test",
  "procedure": "CD (SD) IGS rats (Charles River Japan, Inc.; male; 7-week-old) were housed for seven days at room temperature (23±2° C.) and 55±15% humidity. During the housing period, the rats were free to access commercially available food (from Oriental Bio Service; CRF-1).\nStreptozotocin (Sigma), which induce diabetes, was dissolved in citrate-buffered saline (pH 4.5) to obtain 0.05 M streptozocin solution and injected intravenously to each rat at 60 mg/kg. One week later, blood was collected from tail end and blood-glucose level was determined with a blood-glucose monitor (Molecular Devices; M-SPmax250). Based on the measurements, rats were divided into groups so that a significant difference in glucose level may not occur among groups. The average blood-glucose level was from 426.12 to 428.23 mg/dl.\nUnder ether anesthesia, the left-lower legs of rats were shaved and sterilized with 70% aqueous ethanol, fibulas were exposed with scissors and cut with nail scissors (Natsume Seisakusyo; B17). The cut sections of the fibula were re-matched with tweezers. For the test groups (12 rats/group), the drug-containing microspheres prepared in Example 7-(1), which contains 0.03 or 0.1 mg of Compound (2), were placed around the cutting site using spatula followed by suturing with silk thread. For the control group (12 rats/group), the same amount of drug-free microspheres prepared in Control Example 2 were placed around the cutting site using spatula followed by suturing with silk thread. Following the suturing, every animal was sterilized with 70% aqueous ethanol. After six weeks from the sutura, under ether anesthesia, rats were sacrificed by laparotomy with bleeding, and the fibulas were excised.\nEight fibulas were randomly selected from those excised at 6 weeks after sutura and subjected to DXA bone densitometer (from Aloka; DCS-600) to determine bone mineral density and bone mineral content at fracture region, (scanning width: 1 mm).\nThe fibula used in the determination of mineral content was subjected to a three-point bending test with bone strength tester (from Muromachi Kikai Co., Ltd.; TK-252C) to determine bone strength. Briefly, the fibula was supported by two supports apart from each other by 8 mm and the cut section was positioned at the middle of these supports, i.e., 4 mm apart from the respective two supports. Loading (3 mm/minute) from upper direction was kept on the middle point (fracture section) of fibula until fibula begins to fracture. The maximum pressure necessary to break the bone was defined as the breaking force. The total energy spent to break the bone was defined as the breaking energy.\nFour fibulas excised at 6 weeks after sutura was photographed with micro focus magnification radiography system (Fuji Photo Film Co. Ltd.; μFX-1000; tube voltage: 25 kV; tube current: […]; 20 seconds).",
  "data": [
    {"molecule": "CCOc1cc2cc(CO)c(CO)c(-c3ccnc(-n4nc(-c5cccnc5)c5ccccc5c4=O)c3)c2cc1OCC", "note": "[Compound (2)]", "values": [
      {"measurement": "Bone mineral content", "setting": "drug content 0.03 mg", "result": "13.69 ± 0.96", "unit": "mg"},
      {"measurement": "Breaking Energy", "setting": "drug content 0.03 mg", "result": "1.53 ± 0.39", "unit": "mJ"},
      {"measurement": "Breaking force", "setting": "drug content 0.03 mg", "result": "8.13 ± 1.20", "unit": "N"},
      {"measurement": "Bone mineral content", "setting": "drug content 0.1 mg", "result": "14.60 ± 0.69", "unit": "mg"},
      {"measurement": "Breaking Energy", "setting": "drug content 0.1 mg", "result": "2.91 ± 0.82", "unit": "mJ"},
      {"measurement": "Breaking force", "setting": "drug content 0.1 mg", "result": "11.75 ± 2.14", "unit": "N"}
    ]}
  ]
}
